These results are taken from US20020187514A1 (priority 1999, published 2002).

SMILES strings stand for the structures. Counter-ions that a name gives are not always drawn.

The target of one test is Imidazoline, I2, central. Put plainly: Imidazoline, I2, central; [3H]2-BFI. It counts as binding. The conditions noted are these: reference compound, QA/QC; read-out: Ref Kj.
For the next test, the target named is Melatonin. Put plainly: Melatonin; [125I]-2-Iodomelatonin. It counts as binding. Particulars: reference compound, QA/QC; read-out: Ref Kj.
The next test deals with Imidazoline, I1. Put plainly: Imidazoline, I1; [125I]-Clonidine. The format is binding. The conditions noted are these: reference compound, QA/QC; read-out: Ref Kj.
Test [1] concerns the target Glutamate, NMDA, Glycine (Stry-insens Site). It counts as binding. Particulars: read-out: Ref Kj.
In another test the target is Histamine, H3. As to the kind of experiment: Histamine, H3; [3H]N-a-MeHistamine. It counts as binding. Particulars: reference compound, QA/QC; read-out: Ref Kj.
Test [2] has as its target Glutamate, NMDA Agonist Site. As to the kind of experiment: Glutamate, NMDA Agonist Site; [3H]CGP 39653. It counts as binding. Particulars: reference compound, QA/QC; read-out: Ref Kj.
Another test has as its target Glucocorticoid (UniProt P06536). Particulars: read-out: Ref Kj.
For another test, the target named is T1, Histamine, H1 (Bos taurus, UniProt P30546).
T1 construct: no other source notation after assay name denotes animal cell or animal tissue source; from tissue; host or cells: animal cell or animal tissue, not specified
As to the kind of experiment: Histamine, H1; [3H]Pyrilamine. It counts as binding.

T1 sequence (P30546 whole entry): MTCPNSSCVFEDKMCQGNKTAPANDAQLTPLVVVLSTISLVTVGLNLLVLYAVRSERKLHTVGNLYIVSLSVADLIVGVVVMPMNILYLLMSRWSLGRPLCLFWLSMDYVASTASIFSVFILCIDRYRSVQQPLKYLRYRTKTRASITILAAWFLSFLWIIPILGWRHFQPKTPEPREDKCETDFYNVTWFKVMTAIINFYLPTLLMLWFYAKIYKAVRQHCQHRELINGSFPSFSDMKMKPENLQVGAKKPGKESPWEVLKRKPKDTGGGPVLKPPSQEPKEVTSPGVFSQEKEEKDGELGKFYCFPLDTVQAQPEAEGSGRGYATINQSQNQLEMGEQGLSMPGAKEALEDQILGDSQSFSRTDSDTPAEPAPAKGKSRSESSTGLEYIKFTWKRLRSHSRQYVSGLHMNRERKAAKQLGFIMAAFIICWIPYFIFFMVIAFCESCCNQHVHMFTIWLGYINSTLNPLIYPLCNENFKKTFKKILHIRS
Glucocorticoid, sequence (P06536 whole entry): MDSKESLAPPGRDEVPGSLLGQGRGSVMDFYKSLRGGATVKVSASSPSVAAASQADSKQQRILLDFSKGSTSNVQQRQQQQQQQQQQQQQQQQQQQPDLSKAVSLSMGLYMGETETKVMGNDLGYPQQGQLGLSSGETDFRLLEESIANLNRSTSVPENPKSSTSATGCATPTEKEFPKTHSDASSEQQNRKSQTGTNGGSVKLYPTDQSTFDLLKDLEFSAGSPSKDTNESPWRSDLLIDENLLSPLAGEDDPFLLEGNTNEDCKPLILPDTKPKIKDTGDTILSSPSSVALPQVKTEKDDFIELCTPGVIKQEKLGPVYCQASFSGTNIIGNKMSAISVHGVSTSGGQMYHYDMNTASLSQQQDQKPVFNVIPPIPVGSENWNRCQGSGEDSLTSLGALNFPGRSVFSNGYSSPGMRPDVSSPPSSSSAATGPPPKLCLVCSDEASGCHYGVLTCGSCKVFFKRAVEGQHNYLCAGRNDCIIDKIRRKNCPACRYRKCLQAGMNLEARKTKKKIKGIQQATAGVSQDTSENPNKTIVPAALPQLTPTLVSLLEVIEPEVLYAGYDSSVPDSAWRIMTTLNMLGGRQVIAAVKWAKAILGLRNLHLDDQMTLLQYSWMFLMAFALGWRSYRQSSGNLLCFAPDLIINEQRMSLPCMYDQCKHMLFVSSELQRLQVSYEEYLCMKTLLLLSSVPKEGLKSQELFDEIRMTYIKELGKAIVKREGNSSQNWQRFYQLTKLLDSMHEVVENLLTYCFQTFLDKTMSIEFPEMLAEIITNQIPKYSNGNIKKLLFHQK

For `c1ccc2oc(C3=NCCN3)cc2c1` [2-BFI], the Ki on Imidazoline, I2, central came out at 0.054 nM.
`COc1ccc2[nH]c(I)c(CCNC(C)=O)c2c1` [2-Iodomelatonin]: the Ki at Melatonin was […].
Take `Clc1cc(I)cc(Cl)c1NC1=NCCN1` [Iodoclonidine]: the Ki on Imidazoline, I1 was 7.89 nM.
Turning to `O=C(O)/C(=C/c1c(C(=O)O)[nH]c2cc(Cl)cc(Cl)c12)c1ccccc1` [MDL-105,519], the Ki in test [1] was found to be 16.3 nM.
As to `CNCCc1cnc[nH]1` [N-a-Methylhistamine (NAMH), N-a-Methylhistamine], on Histamine, H3, the Ki was found to be 1.31 nM.
On to `CN[C@H](CC(=O)O)C(=O)O` [NMDA], for which the Ki in test [2] is 13100 nM.
For `C[C@]12C=CC(=O)C=C1CC[C@H]1[C@@H]3C[C@@H](O)[C@](O)(C(=O)CO)[C@@]3(C)C[C@H](O)[C@@]12F` [Triamcinolone], on Glucocorticoid, the Ki came out at 1.74 nM.
Compound `Cc1ccc(/C(=C\CN2CCCC2)c2ccccn2)cc1` [Triprolidine HCl] registered a Ki on Histamine, H1 of 3.6 nM.
